Source: patent publication US5231091A, “Bis-arylphosphate ester antagonists of platelet activating factor” (priority 1992, dated 1993)
Counter-ions that a name gives are not always drawn. Like-named read-outs stand apart in the source and are kept apart here.

Experiments:
[1] = molecular target: T1, PAF receptor (Oryctolagus cuniculus, UniProt G1TEI7); assay: Inhibition of PAF-induced aggregation in rabbit platelet rich plasma; type: cell-based, rabbit (male New Zealand White)
T1 construct: endogenous in cells; host or cells: rabbit platelets (male New Zealand White)
Experimental: Test compounds were evaluated as PAF receptor antagonists in vitro by measuring inhibition of PAF (platelet activating factor) induced platelet aggregation. Platelet aggregation was measured by a modification of the method described in A. Wissner, et. al., J. Med. Chem., 27, 1174, 1984.
Approximately 120-240 ml of blood were collected by cardiac puncture from unanesthetized male New Zealand White rabbits (Whaley's Summit View Farms, Belvedere, N.J.) with the use of 3.2% sodium citrate anticoagulant (1 part of citrate/10 parts of blood). All syringes and pipets were plastic. The blood was gently mixed and immediately centrifuged at 800 rpm for 10-15 minutes at room temperature to recover the platelet rich plasma (PRP). Platelet poor plasma (PPP) was prepared by centrifuging PRP at 2800 rpm for 10 minutes at room temperature.
Dilutions (1:3000) of PRP in Isoton® diluent were made and platelet counts were determined on a Coulter Thrombocounter which was standardized with platelet reference standards (Interscience Platelet Control, Portland, Oreg.). PRP platelet counts were adjusted to approximately 400,000-500,000 platelets/μl by the addition of PPP.
L-PAF was obtained from Calbiochem. A stock solution of 1-2 E-3M was prepared in 10% ethanol in water or 100% methanol and serial working dilutions were made using phosphate buffered saline (PBS). 1-2 E-3M stock solutions of test compounds were prepared in 100% methanol and serially diluted in PBS. All solutions were made up in plastic tubes, stored on ice and protected from heat and light. Solutions were prepared fresh or frozen at -20° C. and used within 48 hours.
Incubation mixtures consisted of 400 μl PRP, 50 μl of PBS diluent or test compound and 50 μl of PAF agonist. More specifically, 400 μl of PRP was stabilized in a cuvette for 1-2 minutes at 37° C. in the aggregometer to achieve a stable baseline, then 50 μl of PBS or test compound, was added and incubated for 5 minutes before addition of the challenge concentration of PAF (final concentration of 5E-8M or 1E-7M, as determined from the dose response curve for PAF for that experiment). Aggregation was monitored for 5 minutes. Samples containing test compound or diluent were run simultaneously for comparison. Test compounds were initially evaluated at a screening concentration of 1E-5M.
The recording equipment consisted of a dual channel Chronolog aggregometer connected to a dual channel 10 MV full scale deflection Omniscribe chart recorder (Houston Instruments). […] The bead suspension was used to set the 0% light transmission mark and clear water was used to set the 100% light transmission mark. These limits defined a full scale deflection. The aggregation traces were analyzed by a digitizing method (C. Kohler and B. Zoltan, J. Pharm. Methods, 12, 113, 1984) with x, y coordinate data stored in a computer file. A suitable program computed parameters of interest such as the magnitude of aggregation.

[2] = system: PAF induced lethality; assay: PAF induced lethality in mice; type: in vivo; details: I.P. 10 mg/kg; corrected for control lethality
Experimental: PAF given I.V. to mice causes an immediate hypotensive shock leading to death in 1 hour or less. Compounds were given intraperitoneally or P.O. at various times before the PAF challenge. Animals alive after 2 hours were counted and the activity of test compounds expressed as % survival corrected for any control (saline treated) animals which survived the PAF challenge.

[3] = rabbit platelet rich plasma, PAF challenge 5E-8M, number of experiments in parentheses, read-out: IC50 inhibition of PAF-induced aggregation

T1 sequence (G1TEI7 1-342): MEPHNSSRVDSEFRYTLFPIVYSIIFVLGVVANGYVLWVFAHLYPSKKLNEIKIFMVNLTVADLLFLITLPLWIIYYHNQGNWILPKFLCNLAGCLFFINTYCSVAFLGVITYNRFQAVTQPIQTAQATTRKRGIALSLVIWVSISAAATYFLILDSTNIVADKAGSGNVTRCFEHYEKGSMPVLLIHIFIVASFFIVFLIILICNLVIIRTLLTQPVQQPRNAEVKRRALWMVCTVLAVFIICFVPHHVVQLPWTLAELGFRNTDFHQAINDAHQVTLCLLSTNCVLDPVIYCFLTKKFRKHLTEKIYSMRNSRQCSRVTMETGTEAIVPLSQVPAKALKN

`CCCCCCCCCCCCCCc1cccc(OP(=O)([O-])Oc2cccc(C[n+]3ccsc3)c2)c1` [3-[[3-[[Hydroxy(3-tetradecylphenoxy)phosphinyl]oxy]-phenyl]methyl]thiazolium, hydroxide, inner salt] was tested, and the IC50 [1, 3] was 18.8 µM.
Compound `CCCCCCCCCCCCCCCCOc1cccc(OP(=O)(O)Oc2cccc(C[n+]3cccc4ccccc43)c2)c1` [1-[[3-[[[3-(Hexadecyloxy)phenoxy]hydroxyphosphinyl]-oxy]phenyl]methyl]-quinolinium, hydroxide] has an IC50 [1, 3] of 21.8 µM.
`Cc1c[n+](Cc2cccc(OP(=O)([O-])Oc3ccc(OCc4ccccc4)cc3)c2)cs1` [3-[[3-[[Hydroxy[4-(phenylmethoxy)phenoxy]phosphinyl]oxy]phenyl]methyl]-5-methyl-thiazolium, hydroxide, inner salt] showed an IC50 [1, 3] of 1530 µM.
Work on `CCCCCCCCCCCCOc1ccc2ccc(OP(=O)([O-])Oc3cccc(C[n+]4ccsc4)c3)cc2c1` [3-[[3-[[[[7-(dodecyloxy)-2-naphthalenyl]oxy]hydroxyphosphinyl]oxy]phenyl]methyl]thiazolium, hydroxide, inner salt] yielded an IC50 [1, 3] of 26.4 µM.
In the case of `CCCCCCCCCCCCCCCCOc1cccc(OP(=O)([O-])Oc2ccccc2C[n+]2ccsc2)c1` [3-[[2-[[[3-(Hexadecyloxy)phenoxy]hydroxyphosphinyl]oxy]phenyl]methyl]-thiazolium, hydroxide, inner salt], the IC50 [1, 3] is reported as 6.36 µM.
`CCCCCCCCCCCCOc1cccc(OP(=O)([O-])Oc2cccc(C[n+]3cccc4ccccc43)c2)c1OC` [-[[3-[[[3-(Dodecyloxy)-2-methoxyphenoxy]hydroxyphosphinyl]oxy]phenyl]methyl]quinolinium, hydroxide, inner salt] was tested, and the IC50 [1, 3] was 24.7 µM.
With `CCCCCCCCCCCCOc1cc(C(C)(C)C)c(OP(=O)([O-])Oc2cccc(C[n+]3csc(C)c3)c2)cc1C(C)(C)C` [3-[[3-[[[2,5-Bis(1,1-dimethylethyl)-4-(dodecyloxy)phenoxy] hydroxyphosphinyl]oxy]phenyl]methyl]-5-methyl-thiazolium, hydroxide, inner salt] the “PAF induced lethality, % protection” value [2] was 36% and the IC50 [1, 3] was 0.412 µM.
Work on `CCCCCCCCCCCCCCOc1cccc(COP(=O)([O-])Oc2cccc(C[n+]3ccsc3)c2)c1` [3-[[3-[[Hydroxy[[3-(tetradecyloxy)phenyl]methoxy]-phosphinyl]oxy]phenyl]methyl]thiazolium, hydroxide, inner salt] yielded an IC50 [1, 3] of 4.22 µM.
Compound `CCCCCCCCCCCCOc1cccc(OP(=O)([O-])Oc2cccc(C[n+]3ccsc3)c2)c1OC` [3-[[3-[[[3-(Dodecyloxy)-2-methoxyphenoxy]hydroxyphosphinyl]oxy]phenyl]methyl]thiazolium, hydroxide, inner salt] has an IC50 [1, 3] of 1.72 µM.
`CCCCCCCCCCCCCCOc1cccc(OP(=O)([O-])Oc2cccc(C[n+]3ccccc3)c2)c1OC` [1-[[3-[[Hydroxy[2-methoxy-3-(tetradecyloxy)phenoxy]-phosphinyl]oxy]phenyl]methyl]-pyridinium, hydroxide, inner salt] showed an IC50 [1, 3] of 165 µM.
Work on `CCCCCCCCCCCCCCOc1cccc(OP(=O)([O-])Oc2cccc(C[n+]3ccc4ccccc4c3)c2)c1OC` [2-[[3-[[Hydroxy[2-methoxy-3-(tetradecyloxy)phenoxy]-phosphinyl]oxy]phenyl]methyl]-isoquinolinium, hydroxide, inner salt] yielded an IC50 [1, 3] of 20 µM.
`CCCCCCCCCCCCCCOc1cccc(OP(=O)([O-])Oc2cccc(C[n+]3cccc4ccccc43)c2)c1C(=O)OC` [1-[[3-Hydroxy[2-(methoxycarbonyl)-3-(tetradecyloxy)-phenoxy]phosphinyl]oxy]phenyl]methyl]quinolinium, hydroxide, inner salt] showed an IC50 [1, 3] of 6.26 µM.
`CCCCCCCCCCCCCCCCCCNC(=O)Oc1cccc(OP(=O)([O-])Oc2cccc(C[n+]3csc(C)c3)c2)c1C` [3-[[3-[[Hydroxy[2-methyl-3-[[(octadecylamino)carbonyl]oxy]phenoxy]phosphinyl]oxy]phenyl]methyl]-5-methylthiazolium, hydroxide, inner salt] was tested, and the IC50 [1] was 1.8 µM.
With `CCCCCCCCCCCCOc1cc(OP(=O)([O-])Oc2cccc(C[n+]3ccsc3)c2)c(C(C)(C)C)cc1C(C)(C)C` [3-[[3-[[[2,4-Bis(1,1-dimethylethyl)-5-(dodecyloxy)phenoxy]hydroxyphosphinyl]oxy]phenyl]methyl]thiazolium, hydroxide, inner salt] the IC50 [1, 3] was 30.2 µM.
In the case of `CCCCCCCCCCCCCCOc1cccc(OP(=O)([O-])Oc2cccc(C[n+]3ccsc3)c2)c1` [3-[[3-[[Hydroxy[3-(tetradecyloxy)phenoxy]phosphinyl]-oxy]phenyl]methyl]thiazolium, hydroxide, inner salt], the IC50 [1, 3] is reported as 6.15 µM.
With `CCCCCCCCCCCCCCCCOc1ccc(OP(=O)([O-])Oc2cccc(C[n+]3ccsc3)c2)cc1` [3-[[3-[[[4-(Hexadecyloxy)phenoxy]hydroxyphosphinyl]-oxy]phenyl]methyl]thiazolium, hydroxide, inner salt] the “PAF induced lethality, % protection” value [2] was 96% and the IC50 [1, 3] was 3.28 µM.
For `CCCCCCCCCCCCCCOc1cccc(OP(=O)([O-])Oc2cccc(C[n+]3ccsc3)c2)c1C(=O)OC` [3-[[3-[[Hydroxy[2-(methoxycarbonyl)-3-(tetradecyloxy)-phenoxy]phosphinyl]oxy]phenyl]methyl]-thiazolium, hydroxide, inner salt], the “PAF induced lethality, % protection” value [2] was 12% and the IC50 [1, 3] was 2.7 µM.
With `CCCCCCCCCCCCCCOc1cccc(OP(=O)([O-])Oc2cccc(C[n+]3cccc4ccccc43)c2)c1OC` [1-[[3-[[Hydroxy[2-methoxy-3-(tetradecyloxy)phenoxy]-phosphinyl]oxy]phenyl]methyl]-quinolinium, hydroxide, inner salt] the IC50 [1, 3] was 8 µM.
With `CCCCCCCCCCCCCCCCOc1cccc(OP(=O)([O-])Oc2cccc(C[n+]3ccccc3)c2)c1` [1-[[3-[[[3-(Hexadecyloxy)phenoxy]hydroxyphosphinyl]-oxy]phenyl]methyl]-pyridinium, hydroxide inner salt] the IC50 [1, 3] was 15.4 µM.
With `CCCCCCCCCCCCCCCCCCNC(=O)Oc1cccc(OP(=O)([O-])Oc2cccc(C[n+]3ccsc3)c2)c1C` [3-[[3-[[Hydroxy[2-methyl-3-[[(octadecylamino)carbonyl]oxy]phenoxy]phosphinyl]oxy]phenyl]methyl]thiazolium, hydroxide, inner salt] the IC50 [1] was 3.72 µM.
For `CCCCCCCCCCCCOc1cccc(OP(=O)([O-])Oc2cccc(C[n+]3ccsc3)c2)c1` [3-[[3-[[[3-(Dodecyloxy)phenoxy]hydroxyphosphinyl]-oxy]phenyl]methyl]thiazolium, hydroxide, inner salt], the IC50 [1, 3] was 52.8 µM.
`CCCCCCCCCCCCCCOc1cccc(OP(=O)([O-])Oc2cccc(C[n+]3csc(C)c3)c2)c1` [3-[[3-[[Hydroxy[3-(tetradecyloxy)phenoxy]phosphinyl]-oxy]phenyl]methyl]-5-methyl-thiazolium, hydroxide, inner salt] gave an IC50 [1, 3] of 8.82 µM.
`CCCCCCCCCCCCCCOc1cccc(OP(=O)([O-])Oc2cccc(C[n+]3csc(C)c3)c2)c1C(=O)OC` [3-[[3-[[Hydroxy[2-(methoxycarbonyl)-3-(tetradecyloxy)phenoxy]phosphinyl]oxy]phenyl]methyl]-5-methylthiazolium, hydroxide, inner salt] was tested, and the “PAF induced lethality, % protection” value [2] was 0% and the IC50 [1, 3] was 0.521 µM.
`CCCCCCCCCCCCCCOc1ccccc1OP(=O)([O-])Oc1cccc(C[n+]2ccsc2)c1` [3-[[3-[ [Hydroxy[2-(tetradecyloxy)phenoxy]phosphinyl]-oxy]phenyl]methyl]thiazolium, hydroxide, inner salt] showed an IC50 [1, 3] of 57.5 µM.
With `CCCCCCCCCCCCCCCCOc1cccc(OP(=O)([O-])Oc2cccc(C[n+]3cccc4ccccc43)c2)c1C` [1-[[3-[[[3-(hexadecyloxy)-2-methylphenoxy]hydroxyphosphinyl]oxy]phenyl]methyl]quinolinium] the IC50 [1, 3] was 29.6 µM.
